melting point [°C]	Compound
112 to 116	Brc1ccc2sc3ccccc3c2c1
95 to 97	Cc1ncnc(-c2cc([N+](=O)[O-])c(F)cc2F)c1Cl
190 to 192	COc1ccc(NS(=O)(=O)c2ccc(OC)c3c2c2ccccc2n3C=O)cc1
194 to 196	COc1ccc(CCNc2nc(N)c3nc(-c4ccco4)oc3n2)cc1
150 to 153	CC(C)c1cccc(C(C)C)c1NC(=O)C1CCCC(CCCCCOc2ccccc2)(c2ccccc2)C1=O (stereo not given)
98	CC(C)(C)OC(=O)C(Nc1ccccc1)c1ccc(Cl)cc1 (racemic)
78 to 80	COc1cc(CCI)cc2c1OCO2
174 to 176	O=c1cc2c(nn1-c1ccc(Cl)cc1)-c1ncccc1CC2
93 to 94	C#CC1(O)c2ccccc2COc2ccccc21 (stereo not given)
122 to 125	CCOC(=O)CSc1cc(Cl)nc(NCc2ccc(Cl)cc2)n1
218 to 221	CC(=O)N1CCC(NC(=O)Nc2ccccc2CCc2cc(C(C)(C)C)c(O)c(C(C)(C)C)c2)CC1
208 to 210	CC(=N)Nc1cccc(Br)c1
152	N#Cc1cnn(-c2c(Cl)cc(Cl)cc2Cl)c1C=O
> 300	COc1ccccc1-n1c(-c2ccc(C=C(C#N)C#N)s2)ccc1-c1ccc(C(C#N)=C(C#N)C#N)s1
150 to 171	CCOC(=O)c1nc2cc(N)ccn2n1
111 to 113	CCCCCCCCCCCCc1ccc(CCC(COC(C)=O)(COC(C)=O)NC(C)=O)cc1
214 to 216	CN(C)C=C1CCN(Cc2ccc([N+](=O)[O-])cc2)c2ccsc2C1=O
87 to 88	Cc1ccc(S(=O)(=O)NCCCCOc2ccc([N+](=O)[O-])cc2)cc1
234 to 236	CN1C(=O)C(C(=O)Nc2ccc(F)cc2)S(=O)(=O)c2ccc(Cl)cc21 (stereo not given)
130	CCn1c(OC)n[nH]c1=O
144 to 146	Fc1ccc(Oc2cc3c(Cl)nc(Cl)nc3cn2)c(F)c1
145 to 146	CS(=O)(=O)c1ccc(C(=O)O)c(Cl)c1C1=NOCC1
126 to 128	COc1cc2c(c3c1OC(C)(C)C3)C(c1cccc(-c3ccco3)c1)=NC(C)(C)C2
122	CN1CCN(S(=O)(=O)c2ccc(Br)s2)CC1
230	Sc1ccc(-c2nc3cnccc3[nH]2)cc1

melting point [°C]	Compound
225 to 227	Nc1nccc(CCc2ccc3c(C(=O)Nc4cccc(C(F)(F)F)c4)cccc3c2)n1
135	CNC(=S)Nc1ccc(Cc2cc(C)c(C(=O)c3ccc(Cl)cc3)n2C)nc1
144 to 147	O=Cc1ccc(OCc2coc(/C=C/c3ccc(S(=O)C(F)(F)F)cc3)n2)cc1 (stereo not given)
> 285	O=C(O)Cn1c(=O)c(=O)[nH]c2ccc(Cl)cc21
> 300	COc1nc(NC#N)nc(OC)n1
50 to 51	Cc1cccc(C(=O)C(C)(C)C(C)(C)[N+](=O)[O-])c1
142 to 143	CC(C)(C)CN1C(=O)C2CC(c3ccc(N)cc3)(C2)C1=O
106 to 107	O=C1Cn2cccc2Sc2ccc(Cl)cc21
74	CNC(=S)NS(=O)(=O)c1cc(CCNC(=O)/C=C/c2cccs2)ccc1OCCc1ccccc1
189	CNc1cccc2c1CCn1cc(-c3ccccc3)nc1C2OC1CCN(C)CC1 (stereo not given)
158 to 160	Cc1c(CO)cc([N+](=O)[O-])c(Cl)c1[N+](=O)[O-]
124 to 125	CCc1cnn(CC(=O)O)c1OCCCc1cn(-c2ccc(C(F)(F)F)cn2)nc1C(CC)CC
78 to 79	COc1ccc(S(=O)(=O)N(C)C)cc1-c1ccc(CN2CCCCC2)[nH]1
107 to 109	COc1ccc(C(=O)c2c(-c3ccccc3)sc3ccccc23)cc1
67 to 69	CCCCC(Cn1cnc([N+](=O)[O-])c1)c1ccc(Cl)cc1Cl (stereo not given)
139 to 141	NCCCc1cn(S(=O)(=O)c2c(Cl)nc3sccn23)c2ccc(F)cc12
103 to 106	c1ccc2c(OCCN3CCCCC3)c3ccccc3c(OCCN3CCCCC3)c2c1
190	COC(=O)c1ccc(F)cc1SC(=O)N(C)C
79 to 80	C=CCOC(=O)c1ccc(C(=O)SCc2ccc3c(c2)C(C)(C)CCC3(C)C)cc1
104 to 105	Cn1cc(C2CCC(=O)C2)c2cc(F)ccc21 (stereo not given)
252 to 253	Cn1ncc2ccc(OCCCCl)cc2c1=O
96 to 97	CCCCCCCCCCCCc1ccc(S(=O)(=O)Nc2nnc(C(=O)OCC)s2)cc1
105 to 106	CCCCCCC(=O)CC(C)=O
112 to 113	COc1ccc(C2=NN(C(=O)c3cccnc3)CC2)c(OC)c1

The next lines start with the molecule.

Compound	melting point [°C]
CC1(Oc2ccccc2)CN(Cc2ccc(COc3cccc4c3CN(C3CCC(=O)NC3=O)C4=O)cc2)C1 (stereo not given)	127 to 129
Cc1ncncc1C(=O)Nc1ccc(-n2nc(C(F)(F)F)cc2C2CC2)cc1	163 to 166
COc1ccc(Cc2sc3ccccc3c2-c2ccc(-c3ccc(OC(Cc4ccccc4)C(=O)O)cc3)cc2)c(OC)c1 (stereo not given)	70 to 72
O=C(c1ccc(CCCCc2ccccc2)cc1)N(O)Cc1ccccc1	83.5 to 85
CCC1COC(c2ccc(C#N)c(F)c2)OC1 (stereo not given)	49
CCN1CCC2(CC1)c1ccccc1Sc1c(O)cccc12	223 to 225
CC(C)Oc1ccc2nc(COc3ccc(CC4SC(=O)N(C(c5ccccc5)(c5ccccc5)c5ccccc5)C4=O)cc3)n(C)c2n1 (stereo not given)	90 to 100
CC(C)(C)OC(=O)N1CCn2c(C#N)c(-c3cccc(F)c3)c(C(=O)O)c2C1	> 210
O=[N+]([O-])c1ccc(OCc2ccc(F)cc2)cc1	124 to 126
CCOC(=O)C1=NN(C(=O)c2ccccc2I)C(C(=O)OCC)=NN1C(=O)c1ccccc1I	186 to 187
CC(=O)c1cccc(S(=O)(=O)NCc2ccccc2-c2ccccc2C(=O)NCc2ccccc2)c1	182
Cc1cc2c(-c3ccccc3)c(CNC(=O)c3cc4ccccc4[nH]3)n(C)c(=O)c2cc1C	303 to 305
COC1=CC2SC2C2(OC)SC12OC (stereo not given)	143 to 144
CC1(C)C(=O)NC(c2ccc(NC(=O)CCl)cc2)c2ccccc21 (stereo not given)	218 to 219
O=c1oc(-c2ccsc2)cc(O)c1SCc1ccccc1	150 to 151
CCCCN1CCC(CNC(=O)c2ccc(N)n3cc(-c4ccccc4)nc23)CC1	221
Cc1nc2cnccc2n1-c1ccc(C2=Nc3ccccc3N(C)C(=O)C2)cc1	147
CCOC(=O)OC1CCN(C(=O)OCC)Cc2c1nc1ccccc1c2C (stereo not given)	40
N#CCc1ccc(-c2coc3cc(O)c(O)cc3c2=O)cc1	258 to 260
Cc1ccc(NC(=O)c2cc(Cl)ccc2NCC2CCN(C3CCSC3)CC2)nc1 (stereo not given)	151 to 153
O=C(Nc1ccc(-n2nc(C(F)(F)F)cc2C(F)(F)F)cc1)c1ccncc1[N+](=O)[O-]	207 to 209
CCc1cc2ccccc2c(=O)o1	69
COc1ccc(C(C)C)cc1-c1cc(-c2nnnn2CCc2ccccc2)c(O)cc1O	206 to 209
O=C(NCC(=O)N1c2ccccc2N(Cc2ccccc2)C(=O)[C@H]2CCC[C@H]21)c1cccnc1 (relative stereo)	189 to 191
Cc1c(NC(=O)c2ccc(-c3ccc(Cl)cc3)cc2F)ccc2cc(CN3CCCC3)cnc12	181 to 183
COc1ccc2[nH]c(C)c(-c3nc(OC)cc(OC)n3)c2c1	182 to 184

Compound	melting point [°C]
Cn1nnnc1C=C(c1ccccc1)c1ccccc1	147 to 148
CNC(=O)N1CC(Oc2ccc(Cl)cc2Cl)C1	140 to 141
O=C(O)/C=C/c1ccc(OCC2CCCO2)cc1Oc1ncc(C(F)(F)F)cc1Cl (stereo not given)	106 to 109
O=C(O)CCNc1cccc(CNC(=O)C2Cc3ccccc3N2S(=O)(=O)c2ccc(-c3cccc(C(F)(F)F)c3)cc2)c1 (stereo not given)	85
COc1ccc2[nH]c3c(c2c1)C[C@@]1(C)C(=O)N(CCCN(C)C)C(=O)N1[C@@H]3c1cccc(O)c1 (racemic)	228 to 231
O=C(COc1ccccc1)COc1ccccc1	55 to 57
CCCN(C)C(=O)N(C)C(=O)Nc1ccccc1	63 to 64
CN1C(=O)C(NC(=O)Nc2ccc([N+](=O)[O-])cc2)N=C(c2ccccc2)c2ccccc21 (stereo not given)	292 to 293
C=CCc1cc2c(cc1O)CC(CCc1ccccc1)O2 (stereo not given)	79 to 80
Cc1ccc(-c2cc(C(F)(F)F)nn2-c2ccc(C#N)cc2)cc1	125 to 126
CC(C)(C)OC(=O)N1Cc2c(-c3noc(C4CC4)n3)ncn2-c2ccccc21	204
C=CC(C)=CC=CC(C)=CC(=O)OCC	52 to 53
COc1ccc(CCNC(=O)C2CCC2)cc1C	103 to 104
CP(C)(=O)OCc1ccccc1	41 to 45
CCCCc1cnc2ccc(C(=O)O)cc2c1O	260
O=C(c1ccccc1)c1cccnc1-c1nc(NCc2ccc(Cl)cc2)c2ccccc2n1	147 to 149
CC(C)C(N)=C(C#N)C#N	163 to 164
CCCn1nc2c(N)nc3ccccc3c2c1CCCc1cc(-c2ccccc2)no1	176 to 178
CC(=O)Nc1cscc1C(=O)O	206
C#CCc1c(C)nc2c(OCc3c(C)cccc3N(C)C(C)=O)cccn12	76
CCn1cc(C(=O)O)c(=O)c2cnc(N3CCN(C)CC3)nc21	232 to 233
Cc1noc(NC(=O)N2CCN(c3nccc(-c4c(F)cccc4F)n3)CC2)c1C	189 to 190
CC(=O)Nc1c(C(O)(C(F)(F)F)C(F)(F)F)ccc2ccccc12	155 to 156
COc1cc(NCCN2CCC(Nc3nc4ccccc4n3Cc3ccc(F)cc3)CC2)ncn1	146
OC1(c2ccc(Cl)c(Cl)c2)c2ccccc2C2=NCCN21 (stereo not given)	203 to 205
